According to PMC11036650, “Different Modes of Mechanism of Gamma-Mangostin and Alpha-Mangostin to Inhibit Cell Migration of Triple-Negative Breast Cancer Cells Concerning CXCR4 Downregulation and ROS Generation” (Iranian Journal of Pharmaceutical Research : IJPR, 2023):
Read-outs that look alike come from different tables or passages of the source.

What was measured:
Assay type in all cases: cell-based, human
LPHN2 = assay: qRT-PCR gene expression, LPHN2; conditions: MDA-MB-231 cells, RT-qPCR
Description: (§1) Total ribonucleic acid (RNA) upon treatment with γ-mangostin and α-mangostin was collected from cells using Sepasol (Nacalai Tesque, Japan). The reverse transcription of complementary deoxyribonucleic acid (cDNA) was performed using ReverTra Ace qPCR RT Kit (Toyobo, Japan), which included DNAse I to remove genomic DNA. Quantitative real-time reverse-transcription polymerase chain reaction (qRT-PCR) was performed using the Thunderbird SYBR qPCR Mix (Toyobo, Japan) on a Real-Time PCR System Light Cycler 96 (Roche, USA). Rac, Farp, CXCR4 ([28]), and latrophilin-2 (LPHN2) primers were used, and GAPDH was detected as the internal control.

MDA-MB-231 cells [1] = assay: Intracellular ROS level measurement (DCFDA, flow cytometry); conditions: for ROS accumulation: 10 µM
Description: The MDA-MB-231 cells were collected in a buffer with 10% FBS in phosphate-buffered saline (PBS) and transferred in a sterile light-blocking microtube before being stained with 20 µM of 2’,7’-dichlorofluorescein diacetate (DCFDA) (Sigma #D6883, USA) and incubated for 30 minutes. Later, γ-mangostin and α-mangostin were added to the cell suspensions and incubated in a 37 °C incubator (with 5% CO2) before analyzing by a flow cytometer (Calibur) at indicated times (4, 8, 18, and 24 hours). 2’,7’-dichlorofluorescein diacetate reacted with the hydroxyl radicals (·OH) and transformed into fluorescent 2,7-dichlorofluorescein (DCF). The fluorescence intensity of DCF based on 5,000 cells per gate was calculated using the flow cytometer ([29], [30]). In a separate experiment, the cells already stained with DCFDA were treated with 5 mM N-acetyl-L-cysteine (NAC) (Wako #017-05131, Japan) and incubated for an hour before the treatment with γ-mangostin and α-mangostin for the next 24 hours, and the ROS level was subsequently measured. The assay was carried out in triplicate.

MDA-MB-231 cells [2] = assay: Cell viability assay (CCK-8); conditions: MDA-MB-231 cells, 24 hours, CCK-8 assay, triplicate ± SD
Description: (§2) The MDA-MB-231 breast cancer cells were cultured in an L-15 medium, enriched with 15% fetal bovine serum (FBS) (Gibco, USA) and 1% penicillin-streptomycin (Gibco, USA), and incubated in CO2-free 37°C incubator.
(§3) The compounds γ-mangostin (#M6824) and α-mangostin (#M3824) were purchased from Sigma-Aldrich (USA). A suspension of cells (20,000 cells/well in 100 μL) was cultured in a 96-well plate. After an initial 24-hour incubation, γ-mangostin or α-mangostin of varying concentrations (1 - 100 μM) was added to the plate, followed by another 24-hour incubation. A solution of Cell Counting Kit-8 (CCK-8) (Dojindo #347-07621, Japan) was added to each well, and the plate was incubated for 2 hours. The absorbance was subsequently read at 450 nm using a microplate reader ([26]). The assay was carried out in triplicate.

[3] = Cell viability assay (CCK-8); conditions: human
Description: as §2, §3

Farp = assay: qRT-PCR gene expression, Farp; conditions: MDA-MB-231 cells, RT-qPCR
Description: as §1

CXCR4 = assay: qRT-PCR gene expression, CXCR4; conditions: MDA-MB-231 cells, RT-qPCR
Description: as §1

MDA-MB-231 cells [4] = assay: Migration assay (wound healing); conditions: 10 μM, 24 and 42 hours, mitomycin C pretreatment, P < 0.05
Description: A culture-insert 2 well (cat #ib81176) was placed in the well. Then, 5 × 10^4 cells were seeded on each side of the insert. After 24 hours, the medium was discarded and replaced with the fresh medium containing 0.5% FBS, and the cells were cultured for another 18 hours. The next day, the medium was replaced with 10 µg/mL mitomycin C (Wako #139-18711, Japan) and cultured for 2 hours before treatment with 10 μM γ-mangostin and 10 μM α-mangostin. Right after the treatment, the cells were observed under the microscope at 0 hour. At the indicated times (24 and 42 hours), the cell-free area from three parts (i.e., upper, center, and lower scratch) was measured by analyzing the gap closure rate using ImageJ software ([27]).

[5] = longer incubation up to 24 hours, P < 0.0001

Structure (SMILES): COc1c(O)cc2oc3cc(O)c(CC=C(C)C)c(O)c3c(=O)c2c1CC=C(C)C [α-mangostin]
- expression of LPHN2 (mRNA, normalized with GAPDH) (LPHN2): did not alter
- ROS accumulation (MDA-MB-231 cells [1]; after 4 hours): decreased
- ROS accumulation (MDA-MB-231 cells [1]; [5]): started to rise
- IC50 (MDA-MB-231 cells [2]; Homo sapiens): 20 µM
- viability at 24 h, 10 µM ([3]; MDA-MB-231 breast cancer cells, MDA-MB-231 cells, 10 µM concentration, read-out: cell viability): 80%
- viability at 24 h ([3]; MDA-MB-231 breast cancer cells, MDA-MB-231 cells, concentration below 10 µM, 24 hours): 80 to 90%
- expression of Farp (mRNA, normalized with GAPDH) (Farp): did not alter
- expression of CXCR4 (mRNA, normalized with GAPDH) (CXCR4): did not alter
- MDA-MB-231 cell migration (gap closure) (MDA-MB-231 cells [4]): a similar outcome was observed

Structure (SMILES): CC(=O)N[C@@H](CS)C(=O)O [NAC, N-acetyl-L-cysteine, reference compound]
- amount of ROS induced by γ-mangostin and α-mangostin (MDA-MB-231 cells [1]; 5 mM NAC for 1 hour before 10 µM mangostin for 24 hours, P < 0.0001): reduced

Structure (SMILES): CC(C)=CCc1c(O)cc2oc3cc(O)c(O)c(CC=C(C)C)c3c(=O)c2c1O [γ-mangostin]
- expression of LPHN2 (mRNA, normalized with GAPDH) (LPHN2): downregulated
- ROS accumulation (MDA-MB-231 cells [1]; after 4 hours): decreased
- ROS accumulation (MDA-MB-231 cells [1]; [5]): started to rise
- IC50 (MDA-MB-231 cells [2]; Homo sapiens, MDA-MB-231, 24 h): 25 µM
- IC50 (MDA-MB-231 cells [2]): 18 ± 5 µM
- viability at 24 h, 10 µM [3]: 80%
- expression of Farp (mRNA, normalized with GAPDH) (Farp): downregulated
- expression of CXCR4 (mRNA, normalized with GAPDH) (CXCR4): downregulated
- MDA-MB-231 cell migration (gap closure) (MDA-MB-231 cells [4]): effectively inhibited MDA-MB-231 cell migration
